From PubChem BioAssay AID330 (DTP/NCI, 2004)
“And” between values parts separate entries of the source, which are not always exact repeats. Identical values can stand only once. Inconclusive results and toxic doses are left out. How the source made its calls: active means survival T/C of 150% or more; inactive means T/C below 125% in these data. Peptide text beside a SMILES is read from it. * marks the point of attachment. Cbz = O=C(OCc1ccccc1)*

Test system: P388 leukemia ip, CD2F1 mice, survival T/C
Test: NCI In Vivo Anticancer Drug Screen. Data for tumor model P388 Leukemia (intraperitoneal) in CD2F1 (CDF1) mice
Conditions: endpoint: median survival time, higher = longer survival
In short: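 Mice carrying the transplanted tumor received test compound or vehicle. Survival was recorded in each group, and the value is the treated-group measurement divided by that of the vehicle-treated control group.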

[1] = dose: 50.0 mg/kg/injection, schedule: Q01DX005 (ip), vehicle: saline with Tween-80
[2] = dose: 100.0 mg/kg/injection, schedule: Q01DX005 (ip), vehicle: saline with Tween-80
[3] = dose: 200.0 mg/kg/injection, schedule: Q01DX005 (ip), vehicle: saline with Tween-80
[4] = dose: 12.5 mg/kg/injection, schedule: Q01DX009 (ip), vehicle: Klucel (hydroxypropylcellulose) (HPC)
[5] = dose: 25.0 mg/kg/injection, schedule: Q01DX009 (ip), vehicle: Klucel (hydroxypropylcellulose) (HPC)
[6] = dose: 50.0 mg/kg/injection, schedule: Q01DX009 (ip), vehicle: Klucel (hydroxypropylcellulose) (HPC)
[7] = dose: 100.0 mg/kg/injection, schedule: Q01DX009 (ip), vehicle: Klucel (hydroxypropylcellulose) (HPC)
[8] = dose: 25.0 mg/kg/injection, schedule: Q01DX005 (ip), vehicle: Klucel (hydroxypropylcellulose) (HPC)
[9] = dose: 50.0 mg/kg/injection, schedule: Q01DX005 (ip), vehicle: Klucel (hydroxypropylcellulose) (HPC)
[10] = dose: 50.0 mg/kg/injection, schedule: Q01DX009 (ip), vehicle: saline with Tween-80
[11] = dose: 100.0 mg/kg/injection, schedule: Q01DX009 (ip), vehicle: saline with Tween-80
[12] = dose: 200.0 mg/kg/injection, schedule: Q01DX009 (ip), vehicle: saline with Tween-80
[13] = dose: 60.0 mg/kg/injection, schedule: Q01DX005 (ip), vehicle: saline with Tween-80
[14] = dose: 120.0 mg/kg/injection, schedule: Q01DX005 (ip), vehicle: saline with Tween-80
[15] = dose: 240.0 mg/kg/injection, schedule: Q01DX005 (ip), vehicle: saline with Tween-80
[16] = dose: 100.0 mg/kg/injection, schedule: Q01DX005 (ip), vehicle: Klucel (hydroxypropylcellulose) (HPC)
[17] = dose: 200.0 mg/kg/injection, schedule: Q01DX005 (ip), vehicle: Klucel (hydroxypropylcellulose) (HPC)
[18] = dose: 50.0 mg/kg/injection, schedule: Q01DX009 (ip), vehicle: saline
[19] = dose: 100.0 mg/kg/injection, schedule: Q01DX009 (ip), vehicle: saline
[20] = dose: 200.0 mg/kg/injection, schedule: Q01DX009 (ip), vehicle: saline

Measured: T/C

O=S1(=O)Cc2ccccc21
inactive: dose: 100.0 mg/kg/injection, schedule: Q01DX001 (ip), vehicle: Klucel (hydroxypropylcellulose) (HPC) 92 % of control | dose: 200.0 mg/kg/injection, schedule: Q01DX001 (ip), vehicle: Klucel (hydroxypropylcellulose) (HPC) 98 % of control

CCC(CC)NCCCNc1cc(OC)cc2cccnc12
inactive: dose: 12.5 mg/kg/injection, schedule: Q01DX005 (ip), vehicle: saline 108 % of control | dose: 25.0 mg/kg/injection, schedule: Q01DX005 (ip), vehicle: saline 104 % of control

CN(C)CCCNc1cc(/C=C/c2ccc([N+](=O)[O-])cc2)nc2ccccc12
inactive: [1] 106 % of control | [2] 106 % of control | [3] 106 % of control

O=C(CCl)Nc1ccccc1S(=O)(=O)F
inactive: [4] 100 % of control | [5] 107 % of control | [6] 96 % of control | [7] 107 % of control

CCOC(=O)C1C(C)=CC2=Nc3ccccc3NC(=O)C2C1c1ccccc1 (configuration not stated)
inactive: [8] 104 % of control | [9] 106 % of control

C=C(CC(N)=O)C(N)C(=O)O (configuration not stated)
inactive: dose: 60.0 mg/kg/injection, schedule: Q01DX005 (ip), vehicle: saline 100 % of control | dose: 120.0 mg/kg/injection, schedule: Q01DX005 (ip), vehicle: saline 100 % of control | dose: 240.0 mg/kg/injection, schedule: Q01DX005 (ip), vehicle: saline 100 % of control

CCn1c(=O)c2ncnnc2n(CC)c1=O
inactive: dose: 6.25 mg/kg/injection, schedule: Q01DX009 (ip), vehicle: Klucel (hydroxypropylcellulose) (HPC) 104 % of control | [4] 111 % of control

COc1c(C(C)C)cc2c(c1OC)C13CCCC(C)(C)C1C(OC3=O)C2NC(=O)CCN(C)C (configuration not stated)
inactive: [5] 97 % of control | [6] 98 % of control | [7] 90 % of control

COc1c(-c2ccc3c(c2)OCO3)oc2cc(O)cc(O)c2c1=O
inactive: dose: 6.25 mg/kg/injection, schedule: Q01DX005 (ip), vehicle: saline with Tween-80 100 % of control | dose: 12.5 mg/kg/injection, schedule: Q01DX005 (ip), vehicle: saline with Tween-80 100 % of control | dose: 25.0 mg/kg/injection, schedule: Q01DX005 (ip), vehicle: saline with Tween-80 104 % of control | [2] 89 % of control | [3] 105 % of control

CCCCCCC(=O)/C=C/c1c(OC)cc(OC)cc1OC
inactive: [10] 101 % of control | [11] 101 % of control | [12] 97 % of control

Clc1cccn2cnnc12
inactive: [10] 98 % of control | [11] 103 % of control | [12] 100 % of control

CC(C)(C)N1COc2cc3c(cc2C1)OCN(C(C)(C)C)C3
inactive: dose: 12.5 mg/kg/injection, schedule: Q01DX009 (ip), vehicle: saline with Tween-80 110 % of control | dose: 25.0 mg/kg/injection, schedule: Q01DX009 (ip), vehicle: saline with Tween-80 99 % of control | [10] 108 % of control | [11] 119 % of control

CCCCCCCCCCCC#N
inactive: dose: 100.0 mg/kg/injection, schedule: Q04DX003 (ip), vehicle: saline 108 % of control | dose: 200.0 mg/kg/injection, schedule: Q04DX003 (ip), vehicle: saline 104 % of control | dose: 400.0 mg/kg/injection, schedule: Q04DX003 (ip), vehicle: saline 116 % of control

Nc1nc(/C=C(/O)c2ccccc2)c2ncn(C3OC(CO)C(O)C3O)c2n1 (configuration not stated)
inactive: [10] 106 % of control | [11] 103 % of control | [12] 114 % of control

CCn1c2ccccc2c2c3ncc4cccn4c3ccc21
inactive: [13] 94 % of control | [14] 98 % of control | [15] 106 % of control

S=c1oc2cccc3c2n1CCC3
inactive: dose: 100.0 mg/kg/injection, schedule: Q04DX003 (ip), vehicle: saline with Tween-80 95 % of control | dose: 200.0 mg/kg/injection, schedule: Q04DX003 (ip), vehicle: saline with Tween-80 104 % of control | dose: 400.0 mg/kg/injection, schedule: Q04DX003 (ip), vehicle: saline with Tween-80 100 % of control

C=C1C(=O)O[C@@H]2C[C@H](C)[C@@H]3CC[C@H](O)[C@@]3(CO)C[C@H]12
inactive: dose: 12.5 mg/kg/injection, schedule: Q01DX005 (ip), vehicle: Klucel (hydroxypropylcellulose) (HPC) 102 % of control | [8] 102 % of control | [9] 103 % of control and 104 % of control | [16] 114 % of control | [17] 122 % of control

CCOC(=O)CCC(NC(=O)C(CCC(=O)OCC)NC(=O)OCc1ccccc1)C(=O)O (configuration not stated) (tested in a mixture with another compound) (Cbz-Glu(OEt)-Glu(OEt)-OH; configuration not given here)
inactive: [9] 100 % of control | [16] 100 % of control | [17] 100 % of control

CC(=O)Sc1ccccc1C(=O)NCc1ccc(Cl)cc1
inactive: [10] 117 % of control | [11] 104 % of control | [12] 120 % of control

CC1(c2ccccn2)OCCO1
inactive: [18] 97 % of control | [19] 104 % of control | [20] 108 % of control

c1ccc2c3c(ccc2c1)Oc1ccc2ccccc2c1C3CCC1c2c(ccc3ccccc23)Oc2ccc3ccccc3c21
inactive: [13] 96 % of control | [14] 95 % of control | [15] 86 % of control

COc1nc(Nc2ccccc2OC)nc(OC)n1
inactive: [6] 101 % of control | [7] 99 % of control | dose: 200.0 mg/kg/injection, schedule: Q01DX009 (ip), vehicle: Klucel (hydroxypropylcellulose) (HPC) 100 % of control

C/C=C(\C)C(=O)N/N=C\c1cc(Cl)cc(Cl)c1O
inactive: dose: 12.5 mg/kg/injection, schedule: Q01DX009 (ip), vehicle: olive oil, sesame oil, peanut oil 106 % of control | dose: 25.0 mg/kg/injection, schedule: Q01DX009 (ip), vehicle: olive oil, sesame oil, peanut oil 98 % of control | dose: 50.0 mg/kg/injection, schedule: Q01DX009 (ip), vehicle: olive oil, sesame oil, peanut oil 106 % of control | dose: 100.0 mg/kg/injection, schedule: Q01DX009 (ip), vehicle: olive oil, sesame oil, peanut oil 102 % of control | dose: 200.0 mg/kg/injection, schedule: Q01DX009 (ip), vehicle: olive oil, sesame oil, peanut oil 96 % of control | dose: 400.0 mg/kg/injection, schedule: Q01DX009 (ip), vehicle: olive oil, sesame oil, peanut oil 93 % of control

CC(C)OC1NC(=O)Oc2ccccc21 (configuration not stated)
inactive: [1] 104 % of control | [2] 110 % of control | [3] 113 % of control

O=C1C=CC(=O)C1=Cc1ccc([N+](=O)[O-])o1
inactive: dose: 0.78 mg/kg/injection, schedule: Q04DX002 (ip), vehicle: saline with Tween-80 106 % of control | dose: 1.56 mg/kg/injection, schedule: Q04DX002 (ip), vehicle: saline with Tween-80 97 % of control | dose: 3.12 mg/kg/injection, schedule: Q04DX002 (ip), vehicle: saline with Tween-80 97 % of control

CC#CC(=O)OC
inactive: [10] 94 % of control | [11] 101 % of control | [12] 98 % of control | dose: 400.0 mg/kg/injection, schedule: Q01DX009 (ip), vehicle: saline with Tween-80 98 % of control

Nc1c(I)cc(CC(N)C(=O)O)cc1I (configuration not stated)
inactive: [18] 94 % of control | [19] 86 % of control | [20] 89 % of control
